Test results reported in publication PMC4750397 (Clinical lung cancer, 2015).
Marks after values point to notes of the source that are not given here.

Columns and labels:
[1] = Plasma pharmacokinetics of regorafenib, M-2 and M-5; assay type: in vivo, human; conditions: for tmax,md: median (range printed in cell); for tmax,md / AUC(0–24)md Ratio (90% CI) / Cmax,md Ratio (90% CI): n = 6; for AUC(0–24)md Ratio (90% CI) / Cmax,md Ratio (90% CI): Ratio = C2D1:C1D21; for coefficient of variation (CV) in AUC and Cmax: high variability, Table 3A; for Tmax: human, plasma, oral
[2] = Plasma pharmacokinetics of pemetrexed; assay type: in vivo, human
[3] = test system: patients with advanced nsNSCLCs; conditions: single agent, ref [7], cited from earlier work
[4] = test system: human xenograft models; conditions: greater potency than sorafenib; ref [4], [22]; cited from earlier work
[5] = test system: patients with NSCLCs; conditions: sunitinib added to cisplatin and pemetrexed; ref [20]; cited from earlier work
[6] = C2 D1, following cisplatin and pemetrexed
[7] = Cycle 1, Day 1 vs Cycle 2, Day 1

With CNC(=O)c1cc(Oc2ccc(NC(=O)Nc3ccc(Cl)c(C(F)(F)F)c3)c(F)c2)cc[n+]1[O-] [M-2] the “tmax,md” value ([1]; C1 D21, regorafenib alone) was 4.0 (2–24 ^a) hours, the “tmax,md” value [1, 6] was 5.0 (0–6.25 ^a) hours and the “mean AUC(0–24)md lower following the pemetrexed and cisplatin treatment” value ([1]; C2 D1 vs C1 D21) was 48%. The “mean Cmax,md lower following the pemetrexed and cisplatin treatment” value ([1]; C2 D1 vs C1 D21) was 38%, the “AUC(0–24)md Ratio (90% CI)” value [1] was 0.52 (0.44–0.61) and the “Cmax,md Ratio (90% CI)” value [1] was 0.62 (0.46–0.83). The “coefficient of variation (CV) in AUC and Cmax” value [1] was greater than 75%.

In the case of NC(=O)c1cc(Oc2ccc(NC(=O)Nc3ccc(Cl)c(C(F)(F)F)c3)c(F)c2)cc[n+]1[O-] [M-5], the “tmax,md” value ([1]; C1 D21, regorafenib alone) is reported as 16.0 (4–24 ^a) hours, the “tmax,md” value [1, 6] is reported as 5.0(0–6.25 ^a) hours and the “Mean AUC(0–24)md and Cmax,md on both days (in words)” value ([1]; C2 D1 vs C1 D21) is reported as “comparable”. The “AUC(0–24)md Ratio (90% CI)” value [1] was 0.84 (0.67–1.06), the “Cmax,md Ratio (90% CI)” value [1] was 0.97 (0.78–1.20) and the “coefficient of variation (CV) in AUC and Cmax” value [1] was greater than 150%.

In the case of Nc1nc2[nH]cc(CCc3ccc(C(=O)N[C@@H](CCC(=O)O)C(=O)O)cc3)c2c(=O)[nH]1 [Pemetrexed], the “mean AUC on both days (in words)” value [2, 7] is reported as “comparable”, the “mean pemetrexed concentration, before vs after regorafenib (in words)” value [2, 7] is reported as “no difference” and the “Cmax after regorafenib (in words)” value ([2]; Cycle 2, Day 1 vs Cycle 1, Day 1) is reported as “slightly increased”. The “AUC(0–infinity) Ratio (90% CI)” value ([2]; Ratio = C2D1:C1D1, n = 8) was 1.05 (0.96–1.16) and the “Cmax Ratio (90% CI)” value ([2]; Ratio = C2D1:C1D1, n = 8) was 1.20 (1.05–1.35).

For CNC(=O)c1cc(Oc2ccc(NC(=O)Nc3ccc(Cl)c(C(F)(F)F)c3)c(F)c2)ccn1 [Regorafenib, reference compound], the “patients with stable disease for ≥12 weeks” value ([3]; 4 of 18 evaluable patients) is given as 22%, the “Grade 4 or 5 toxicities” value ([3]; 23 patients) is given as “no Grade 4 or 5 toxicities were observed” and the “progression-free survival of one patient” value ([3]; one patient) is given as roughly 40 weeks. For the same compound, the “tumor reduction in one patient” value ([3]; two non-consecutive measurements) was greater than 30%, the “Mean AUC(0–24)md and Cmax,md on both days (in words)” value ([1]; C2 D1 vs C1 D21) was “comparable” and the “AUC(0–24)md Ratio (90% CI)” value [1] was 0.93 (0.77–1.12). For the same compound, the “Cmax,md Ratio (90% CI)” value [1] was 1.03 (0.70–1.51), the Tmax [1] was 4 h and the Tmax ([1]; 60 mg/day) was 4 h. The “potency in human xenograft models relative to sorafenib” value [4] was ~ 3 times.

In the case of CCN(CC)CCNC(=O)c1c(C)[nH]c(/C=C2\C(=O)Nc3ccc(F)cc32)c1C [sunitinib], the myelosuppression [5] is listed as “substantial myelosuppression”.
